Test results published in patent US12157741B2, “Macrocyclic inhibitors of DYRK1A” (DANA-FARBER CANCER INSTITUTE, INC., priority 2018, dated 2024).
Like-named read-outs stand apart in the source and are kept apart here.

Assays:
Assay type in all cases: binding
various enzymes [1] = biological target: various enzymes (Homo sapiens, UniProt Q86V86); conditions: compound 1 uM
Description: (§1) Ambit profiling was conducted in accordance with the manufacturer's instructions.

various enzymes [2] = biological target: various enzymes (Homo sapiens, UniProt P07333); conditions: compound 1 uM
Sequence of various enzymes (Homo sapiens, UniProt P07333) (P07333 20-972): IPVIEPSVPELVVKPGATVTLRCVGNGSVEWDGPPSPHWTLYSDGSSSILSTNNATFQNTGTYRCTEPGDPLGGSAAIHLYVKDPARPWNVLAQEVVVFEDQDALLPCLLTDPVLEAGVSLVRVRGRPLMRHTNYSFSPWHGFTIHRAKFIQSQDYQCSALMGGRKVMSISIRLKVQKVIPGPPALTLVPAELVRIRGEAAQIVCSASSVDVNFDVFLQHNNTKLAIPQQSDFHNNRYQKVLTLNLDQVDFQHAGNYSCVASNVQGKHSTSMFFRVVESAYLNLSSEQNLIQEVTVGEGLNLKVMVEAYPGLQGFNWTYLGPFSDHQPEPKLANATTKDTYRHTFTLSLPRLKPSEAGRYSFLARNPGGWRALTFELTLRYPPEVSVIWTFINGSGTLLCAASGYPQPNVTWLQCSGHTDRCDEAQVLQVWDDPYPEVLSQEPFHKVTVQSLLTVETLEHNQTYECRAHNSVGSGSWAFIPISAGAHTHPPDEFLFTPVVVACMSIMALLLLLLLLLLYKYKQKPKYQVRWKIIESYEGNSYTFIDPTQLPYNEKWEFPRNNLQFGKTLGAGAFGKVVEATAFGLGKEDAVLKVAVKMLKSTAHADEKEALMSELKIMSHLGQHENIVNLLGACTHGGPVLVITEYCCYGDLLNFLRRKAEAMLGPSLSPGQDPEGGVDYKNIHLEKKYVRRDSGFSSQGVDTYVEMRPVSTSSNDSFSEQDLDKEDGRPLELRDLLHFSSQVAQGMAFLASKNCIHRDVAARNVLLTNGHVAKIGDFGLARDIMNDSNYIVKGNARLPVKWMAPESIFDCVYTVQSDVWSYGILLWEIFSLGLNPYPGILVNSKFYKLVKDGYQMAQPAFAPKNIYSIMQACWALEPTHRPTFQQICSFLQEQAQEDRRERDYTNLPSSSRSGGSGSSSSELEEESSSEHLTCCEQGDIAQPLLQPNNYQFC
Description: as §1

various enzymes [3] = biological target: various enzymes (Homo sapiens, UniProt Q6P3R8); conditions: compound 1 uM
Description: as §1

various enzymes [4] = biological target: various enzymes (Homo sapiens, UniProt Q16620); conditions: compound 1 uM
Description: as §1

various enzymes [5] = biological target: various enzymes (Homo sapiens, UniProt P10721, V559D/V654A)
Description: as §1

various enzymes [6] = biological target: various enzymes (Homo sapiens, UniProt P10721, A829P)
Description: as §1

various enzymes [7] = biological target: various enzymes (Homo sapiens, UniProt Q9UQM7); conditions: compound 1 uM
Sequence of various enzymes (Homo sapiens, UniProt Q9UQM7) (Q9UQM7 whole entry): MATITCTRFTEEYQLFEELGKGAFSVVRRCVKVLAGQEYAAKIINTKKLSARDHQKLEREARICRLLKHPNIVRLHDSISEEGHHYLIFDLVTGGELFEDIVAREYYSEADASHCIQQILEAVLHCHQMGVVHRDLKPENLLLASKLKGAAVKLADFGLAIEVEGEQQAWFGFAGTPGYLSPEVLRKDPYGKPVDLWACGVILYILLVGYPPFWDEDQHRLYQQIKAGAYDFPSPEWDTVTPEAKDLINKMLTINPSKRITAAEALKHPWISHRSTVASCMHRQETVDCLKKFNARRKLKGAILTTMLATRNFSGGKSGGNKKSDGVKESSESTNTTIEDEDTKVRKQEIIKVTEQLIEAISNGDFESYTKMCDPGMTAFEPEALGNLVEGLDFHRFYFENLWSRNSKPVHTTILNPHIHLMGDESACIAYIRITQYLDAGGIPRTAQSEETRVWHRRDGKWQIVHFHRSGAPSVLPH
Description: as §1

various enzymes [8] = biological target: various enzymes (Homo sapiens, UniProt P07948); conditions: compound 1 uM
Sequence of various enzymes (Homo sapiens, UniProt P07948) (P07948 whole entry): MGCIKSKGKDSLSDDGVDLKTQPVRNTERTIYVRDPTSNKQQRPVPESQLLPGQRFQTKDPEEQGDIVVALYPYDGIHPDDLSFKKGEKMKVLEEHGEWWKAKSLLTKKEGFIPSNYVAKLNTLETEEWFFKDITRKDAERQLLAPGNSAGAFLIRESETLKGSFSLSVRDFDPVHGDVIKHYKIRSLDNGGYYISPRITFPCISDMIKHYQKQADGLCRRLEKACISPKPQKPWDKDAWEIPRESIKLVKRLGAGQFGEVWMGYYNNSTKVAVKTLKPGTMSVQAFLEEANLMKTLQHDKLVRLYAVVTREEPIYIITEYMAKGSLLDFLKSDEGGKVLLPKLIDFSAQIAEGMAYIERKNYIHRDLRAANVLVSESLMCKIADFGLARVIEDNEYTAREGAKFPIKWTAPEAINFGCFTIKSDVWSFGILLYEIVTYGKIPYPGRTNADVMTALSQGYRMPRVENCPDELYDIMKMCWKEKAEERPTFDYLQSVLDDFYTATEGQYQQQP
Description: as §1

various enzymes [9] = biological target: various enzymes (Homo sapiens, UniProt Q9UPE1); conditions: compound 1 uM
Description: as §1

various enzymes [10] = biological target: various enzymes (Homo sapiens, UniProt Q6XUX3); conditions: compound 1 uM
Description: as §1

various enzymes [11] = biological target: various enzymes (Homo sapiens, UniProt P49840); conditions: compound 1 uM
Sequence of various enzymes (Homo sapiens, UniProt P49840) (P49840 whole entry): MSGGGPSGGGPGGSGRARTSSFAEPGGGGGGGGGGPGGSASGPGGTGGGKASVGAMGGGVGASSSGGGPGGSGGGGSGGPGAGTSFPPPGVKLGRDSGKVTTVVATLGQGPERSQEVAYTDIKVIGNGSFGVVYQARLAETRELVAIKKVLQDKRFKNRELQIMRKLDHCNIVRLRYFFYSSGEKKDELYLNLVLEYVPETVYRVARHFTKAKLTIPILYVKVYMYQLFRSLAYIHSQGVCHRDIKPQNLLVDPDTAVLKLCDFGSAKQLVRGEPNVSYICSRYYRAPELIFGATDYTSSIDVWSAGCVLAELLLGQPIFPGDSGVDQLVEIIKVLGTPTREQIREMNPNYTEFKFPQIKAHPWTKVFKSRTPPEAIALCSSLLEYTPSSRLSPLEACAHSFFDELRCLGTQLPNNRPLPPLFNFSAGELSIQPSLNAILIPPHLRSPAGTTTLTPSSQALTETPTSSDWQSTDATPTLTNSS
Description: as §1

various enzymes [12] = biological target: various enzymes (Homo sapiens, UniProt P36888, D835H)
Description: as §1

various enzymes [13] = biological target: various enzymes (Homo sapiens, UniProt O94806); conditions: compound 1 uM
Description: as §1

various enzymes [14] = biological target: various enzymes (Homo sapiens, UniProt Q9P289); conditions: compound 1 uM
Description: as §1

various enzymes [15] = biological target: various enzymes (Homo sapiens, UniProt O75460); conditions: compound 1 uM
Description: as §1

various enzymes [16] = biological target: T1, various enzymes (Homo sapiens, UniProt Q99640); conditions: compound 1 uM
T1 sequence (Q99640 1-499): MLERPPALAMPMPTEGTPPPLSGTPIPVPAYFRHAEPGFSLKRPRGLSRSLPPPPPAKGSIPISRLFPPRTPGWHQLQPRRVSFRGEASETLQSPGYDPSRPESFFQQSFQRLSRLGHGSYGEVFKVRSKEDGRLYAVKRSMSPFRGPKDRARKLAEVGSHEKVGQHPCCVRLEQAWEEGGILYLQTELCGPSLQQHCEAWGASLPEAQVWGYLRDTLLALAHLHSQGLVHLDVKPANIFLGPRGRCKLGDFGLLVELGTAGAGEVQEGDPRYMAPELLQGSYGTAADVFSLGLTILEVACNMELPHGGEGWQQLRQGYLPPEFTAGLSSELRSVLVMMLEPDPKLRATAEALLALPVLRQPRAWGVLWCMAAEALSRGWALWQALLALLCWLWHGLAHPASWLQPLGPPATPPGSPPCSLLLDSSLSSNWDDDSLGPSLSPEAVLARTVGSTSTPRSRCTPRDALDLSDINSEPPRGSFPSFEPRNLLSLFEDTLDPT
Description: as §1

various enzymes [17] = biological target: various enzymes (Homo sapiens, UniProt O43318); conditions: compound 1 uM
Description: as §1

various enzymes [18] = biological target: various enzymes (Homo sapiens, UniProt Q9UBF8); conditions: compound 1 uM
Description: as §1

various enzymes [19] = biological target: various enzymes (Homo sapiens, UniProt P00519, F317I); conditions: compound 1 uM
Sequence of various enzymes (Homo sapiens, UniProt P00519, F317I) (P00519 whole entry F317I): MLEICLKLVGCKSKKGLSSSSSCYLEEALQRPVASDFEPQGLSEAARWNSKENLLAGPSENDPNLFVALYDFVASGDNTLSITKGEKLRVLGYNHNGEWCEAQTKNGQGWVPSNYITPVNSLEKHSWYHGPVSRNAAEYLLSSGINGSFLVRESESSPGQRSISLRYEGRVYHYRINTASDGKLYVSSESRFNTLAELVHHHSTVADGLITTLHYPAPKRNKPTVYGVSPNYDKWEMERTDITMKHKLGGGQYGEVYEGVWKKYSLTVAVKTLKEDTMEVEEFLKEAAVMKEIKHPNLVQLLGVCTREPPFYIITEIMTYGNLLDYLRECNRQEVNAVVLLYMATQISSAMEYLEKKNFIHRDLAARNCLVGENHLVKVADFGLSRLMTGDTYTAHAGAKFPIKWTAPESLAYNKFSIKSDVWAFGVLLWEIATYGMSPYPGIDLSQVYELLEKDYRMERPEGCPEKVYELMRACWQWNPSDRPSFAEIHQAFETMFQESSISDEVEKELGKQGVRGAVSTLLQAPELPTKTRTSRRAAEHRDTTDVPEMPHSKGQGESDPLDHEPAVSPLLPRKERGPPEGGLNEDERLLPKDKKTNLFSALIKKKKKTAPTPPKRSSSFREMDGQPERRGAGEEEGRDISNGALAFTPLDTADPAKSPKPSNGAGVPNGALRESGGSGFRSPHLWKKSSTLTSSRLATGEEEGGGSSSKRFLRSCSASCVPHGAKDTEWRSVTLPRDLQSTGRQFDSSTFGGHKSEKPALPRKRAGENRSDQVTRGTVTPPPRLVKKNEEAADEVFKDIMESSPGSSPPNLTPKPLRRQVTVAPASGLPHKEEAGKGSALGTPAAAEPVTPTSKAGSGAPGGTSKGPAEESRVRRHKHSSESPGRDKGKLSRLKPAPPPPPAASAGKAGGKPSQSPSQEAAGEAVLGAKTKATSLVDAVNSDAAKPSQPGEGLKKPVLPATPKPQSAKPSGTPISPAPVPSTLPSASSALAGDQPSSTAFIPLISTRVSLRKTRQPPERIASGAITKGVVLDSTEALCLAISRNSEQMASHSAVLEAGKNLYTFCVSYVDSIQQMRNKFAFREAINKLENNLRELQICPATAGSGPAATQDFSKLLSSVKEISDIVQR
Description: as §1

various enzymes [20] = biological target: various enzymes (Homo sapiens, UniProt Q9BYP7); conditions: compound 1 uM
Description: as §1

various enzymes [21] = biological target: various enzymes (Homo sapiens, UniProt P17948); conditions: compound 1 uM
Description: as §1

various enzymes [22] = biological target: various enzymes (Homo sapiens, UniProt Q04912); conditions: compound 1 uM
Description: as §1

various enzymes [23] = biological target: various enzymes (Homo sapiens, UniProt P68400); conditions: compound 1 uM
Description: as §1

various enzymes [24] = biological target: various enzymes (Homo sapiens, UniProt Q06418); conditions: compound 1 uM
Description: as §1

various enzymes [25] = biological target: various enzymes (Homo sapiens, UniProt P49759); conditions: compound 1 uM
Description: as §1

various enzymes [26] = biological target: various enzymes (Homo sapiens, UniProt Q9H2K8); conditions: compound 1 uM
Description: as §1

various enzymes [27] = biological target: various enzymes (Homo sapiens, UniProt P51813); conditions: compound 1 uM
Sequence of various enzymes (Homo sapiens, UniProt P51813) (P51813 whole entry): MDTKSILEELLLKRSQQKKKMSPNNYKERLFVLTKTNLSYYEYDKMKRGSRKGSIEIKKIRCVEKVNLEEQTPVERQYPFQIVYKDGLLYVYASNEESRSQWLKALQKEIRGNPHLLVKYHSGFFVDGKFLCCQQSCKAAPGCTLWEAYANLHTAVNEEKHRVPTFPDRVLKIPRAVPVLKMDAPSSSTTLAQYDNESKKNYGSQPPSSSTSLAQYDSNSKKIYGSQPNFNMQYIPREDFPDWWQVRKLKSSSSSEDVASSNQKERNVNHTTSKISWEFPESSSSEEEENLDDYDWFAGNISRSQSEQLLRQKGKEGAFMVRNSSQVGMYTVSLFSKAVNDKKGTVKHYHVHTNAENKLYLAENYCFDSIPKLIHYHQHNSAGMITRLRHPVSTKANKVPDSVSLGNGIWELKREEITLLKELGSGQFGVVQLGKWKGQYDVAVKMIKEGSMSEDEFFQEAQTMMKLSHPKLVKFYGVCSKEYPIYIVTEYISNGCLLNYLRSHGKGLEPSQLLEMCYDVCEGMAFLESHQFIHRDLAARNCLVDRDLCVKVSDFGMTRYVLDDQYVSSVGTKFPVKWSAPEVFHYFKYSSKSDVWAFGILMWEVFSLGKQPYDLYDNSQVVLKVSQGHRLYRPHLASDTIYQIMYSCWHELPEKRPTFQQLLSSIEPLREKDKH
Description: as §1

various enzymes [28] = biological target: various enzymes (Homo sapiens, UniProt P42336, H1047Y)
Description: as §1

various enzymes [29] = biological target: various enzymes (Homo sapiens, UniProt P00519, F317L); conditions: compound 1 uM
Sequence of various enzymes (Homo sapiens, UniProt P00519, F317L) (P00519 whole entry F317L): as the sequence (P00519 whole entry F317I) above, with I317L counted along it
Description: as §1

various enzymes [30] = biological target: various enzymes (Homo sapiens, UniProt P36888, K663Q)
Description: as §1

various enzymes [31] = biological target: various enzymes (Homo sapiens, UniProt Q15418); conditions: compound 1 uM
Sequence of various enzymes (Homo sapiens, UniProt Q15418) (Q15418 whole entry): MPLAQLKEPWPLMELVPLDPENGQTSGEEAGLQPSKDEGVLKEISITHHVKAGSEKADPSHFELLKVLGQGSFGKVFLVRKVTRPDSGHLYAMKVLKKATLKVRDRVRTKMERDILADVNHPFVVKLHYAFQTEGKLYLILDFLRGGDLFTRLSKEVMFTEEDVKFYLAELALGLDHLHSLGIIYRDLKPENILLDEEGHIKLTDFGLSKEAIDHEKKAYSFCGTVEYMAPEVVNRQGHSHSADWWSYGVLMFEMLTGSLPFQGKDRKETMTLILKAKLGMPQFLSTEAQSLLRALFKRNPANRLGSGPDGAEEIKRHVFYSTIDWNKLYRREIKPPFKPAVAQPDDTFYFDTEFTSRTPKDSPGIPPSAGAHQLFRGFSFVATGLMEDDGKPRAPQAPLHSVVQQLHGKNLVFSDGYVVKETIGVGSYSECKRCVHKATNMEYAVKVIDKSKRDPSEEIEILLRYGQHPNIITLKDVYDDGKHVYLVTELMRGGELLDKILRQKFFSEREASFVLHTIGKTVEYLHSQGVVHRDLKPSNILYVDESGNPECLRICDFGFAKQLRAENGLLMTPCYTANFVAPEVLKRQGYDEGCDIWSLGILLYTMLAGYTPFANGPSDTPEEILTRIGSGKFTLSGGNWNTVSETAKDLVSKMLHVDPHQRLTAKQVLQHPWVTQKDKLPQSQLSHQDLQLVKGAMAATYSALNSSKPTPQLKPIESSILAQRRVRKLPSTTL
Description: as §1

various enzymes [32] = biological target: various enzymes (Homo sapiens, UniProt P04049); conditions: compound 1 uM
Description: as §1

various enzymes [33] = biological target: various enzymes (Homo sapiens, UniProt P42336, E542K)
Description: as §1

various enzymes [34] = biological target: various enzymes (Homo sapiens, UniProt O95819); conditions: compound 1 uM
Description: as §1

various enzymes [35] = biological target: various enzymes (Homo sapiens, UniProt O00444); conditions: compound 1 uM
Description: as §1

various enzymes [36] = biological target: various enzymes (Homo sapiens, UniProt P08631); conditions: compound 1 uM
Description: as §1

| SMILES | Ambit profiling: PIM3 (various enzymes [1]) | Ambit profiling: CSF1R (various enzymes [2]) | Ambit profiling: CSF1R-autoinhibited (various enzymes [2]) | Ambit profiling: NEK5 (various enzymes [3]) | Ambit profiling: TRKB (various enzymes [4]) | Ambit profiling: CAMK2A (various enzymes [7]) | Ambit profiling: LYN (various enzymes [8]) | Ambit profiling: SRPK3 (various enzymes [9]) | Ambit profiling: RIPK5 (various enzymes [10]) | Ambit profiling: GSK3A (various enzymes [11]) | Ambit profiling: PRKD3 (various enzymes [13]) | Ambit profiling: MST4 (various enzymes [14]) | Ambit profiling: ERN1 (various enzymes [15]) | Ambit profiling: PKMYT1 (various enzymes [16]) | Ambit profiling: TAK1 (various enzymes [17]) | Ambit profiling: PIK4CB (various enzymes [18]) | Ambit profiling: ABL1(F317I)-nonphosphorylated (various enzymes [19]) | Ambit profiling: ABL1(F317I)-phosphorylated (various enzymes [19]) | Ambit profiling: WNK3 (various enzymes [20]) | Ambit profiling: FLT1 (various enzymes [21]) | further results |
| --- | --- | --- | --- | --- | --- | --- | --- | --- | --- | --- | --- | --- | --- | --- | --- | --- | --- | --- | --- | --- | --- |
| COc1c2c(nn1C)CN(C(C)C)C(=O)CCCn1cc(c(C(F)(F)F)n1)-c1c[nH]c3ncc-2cc13 [Compound 50, (Z)-5-isopropyl-35-methoxy-31-methyl-13-(trifluoromethyl)-11H,21H,31H-5-aza-2(3,5)-pyrrolo[2,3-b]pyridina-1(4,1),3(4,3)-dipyrazolacyclononaphan-6-one] | 91 | 3.3 | 27 | 64 | 0 | 12 | 15 | 38 | 95 | 93 | 15 | 60 | 71 | 86 | 9.1 | 31 | 56 | 19 | 100 | 5.9 | Ambit profiling: KIT(V559D, V654A) (various enzymes [5]): 70; Ambit profiling: KIT(A829P) (various enzymes [6]): 19; Ambit profiling: FLT3(D835H) (various enzymes [12]): 2.8; Ambit profiling: MST1R (various enzymes [22]): 42; Ambit profiling: CSNK2A1 (various enzymes [23]): 59; Ambit profiling: TYRO3 (various enzymes [24]): 99; Ambit profiling: CLK1 (various enzymes [25]): 18; Ambit profiling: TAOK3 (various enzymes [26]): 63; Ambit profiling: BMX (various enzymes [27]): 24; Ambit profiling: PIK3CA(H1047Y) (various enzymes [28]): 100; Ambit profiling: ABL1(F317L)-nonphosphorylated (various enzymes [29]): 35; Ambit profiling: ABL1(F317L)-phosphorylated (various enzymes [29]): 2.5; Ambit profiling: FLT3(K663Q) (various enzymes [30]): 0.9; Ambit profiling: RSK1(Kin.Dom.1-N-terminal) (various enzymes [31]): 3.8; Ambit profiling: RSK1(Kin.Dom.2-C-terminal) (various enzymes [31]): 81; Ambit profiling: RAF1 (various enzymes [32]): 93; Ambit profiling: PIK3CA(E542K) (various enzymes [33]): 85; Ambit profiling: MAP4K4 (various enzymes [34]): 3; Ambit profiling: PLK4 (various enzymes [35]): 10; Ambit profiling: HCK (various enzymes [36]): 8.1 |
| CC(C)N1Cc2nn(C)cc2-c2cnc3[nH]cc(c3c2)-c2cn(nc2C(F)(F)F)CCCC1=O [Compound 45, (Z)-5-isopropyl-31-methyl-13-(trifluoromethyl)-11H,21H,31H-5-aza-2(3,5)-pyrrolo[2,3-b]pyridina-1(4,1),3(4,3)-dipyrazolacyclononaphan-6-one] | 94 | 8.4 | 39 | 100 | 0.25 | 7.7 | 22 | 13 | 27 | 17 | 11 | 24 | 90 | 92 | 4.1 | 99 | 87 | 71 | 100 | 5.4 | Ambit profiling: KIT(V559D, V654A) (various enzymes [5]; compound 1 uM): 100; Ambit profiling: KIT(A829P) (various enzymes [6]; compound 1 uM): 14; Ambit profiling: FLT3(D835H) (various enzymes [12]; compound 1 uM): 1.6; Ambit profiling: MST1R (various enzymes [22]): 70; Ambit profiling: CSNK2A1 (various enzymes [23]): 19; Ambit profiling: TYRO3 (various enzymes [24]): 87; Ambit profiling: CLK1 (various enzymes [25]): 9.9; Ambit profiling: TAOK3 (various enzymes [26]): 22; Ambit profiling: BMX (various enzymes [27]): 35; Ambit profiling: PIK3CA(H1047Y) (various enzymes [28]; compound 1 uM): 84; Ambit profiling: ABL1(F317L)-nonphosphorylated (various enzymes [29]): 55; Ambit profiling: ABL1(F317L)-phosphorylated (various enzymes [29]): 25; Ambit profiling: FLT3(K663Q) (various enzymes [30]; compound 1 uM): 2; Ambit profiling: RSK1(Kin.Dom.1-N-terminal) (various enzymes [31]): 17; Ambit profiling: RSK1(Kin.Dom.2-C-terminal) (various enzymes [31]): 85; Ambit profiling: RAF1 (various enzymes [32]): 100; Ambit profiling: PIK3CA(E542K) (various enzymes [33]; compound 1 uM): 98; Ambit profiling: MAP4K4 (various enzymes [34]): 3.5; Ambit profiling: PLK4 (various enzymes [35]): 29; Ambit profiling: HCK (various enzymes [36]): 24 |
